Target: Macrophage colony-stimulating factor 1 receptor (Homo sapiens, UniProt P07333)
Experiment: Fluorescence Polarization Competition Immunoassay
Conditions: pH 7.5; 25 °C
Method: The assay buffer used was 100 mM 4-(2-hydroxyethyl)piperazine 1-ethanesulfonic acid (HEPES), pH 7.5, 1 mM 1,4-dithio-DL-threitol (DTT), 0.01% (v/v) Tween-20. Compounds were diluted in assay buffer containing 4% dimethylsulfoxide (DMSO) just prior to the assay. To each well, 5 μL of compound were added followed by the addition of 3 μL of a mix containing 33 nM c-fms (Johnson & Johnson PRD) and 16.7 mM MgCl2 (Sigma) in assay buffer. The kinase reaction was initiated by adding 2 μL of 5 mM ATP (Sigma) in assay buffer. The final concentrations in the assay were 10 nM c-fms, 1 mM ATP, 5 mM MgCl2, 2% DMSO. Control reactions were ran in each plate: in positive and negative control wells, assay buffer (made 4% in DMSO) was substituted for the compound; in addition, positive control wells received 1.2 μL of 50 mM ethylenediaminetetraaceticacid (EDTA). The plates were incubated at room temperature for 45 min. At the end of the incubation, the reaction was quenched with 1.2 μL of 50 mM EDTA (EDTA was not added to the positive control wells at this point; see above). Following a 5-min incubation, each well received 10 μL of a 1:1:3 mixture of anti-phosphotyrosine antibody, 10×, PTK green tracer, 10× (vortexed), FP dilution buffer, respectively (all from PanVera, cat. # P2837). The plate was covered, incubated for 30 min at room temperature and the fluorescence polarization was read on the Analyst. […]

Sequence of Macrophage colony-stimulating factor 1 receptor (P07333 whole entry): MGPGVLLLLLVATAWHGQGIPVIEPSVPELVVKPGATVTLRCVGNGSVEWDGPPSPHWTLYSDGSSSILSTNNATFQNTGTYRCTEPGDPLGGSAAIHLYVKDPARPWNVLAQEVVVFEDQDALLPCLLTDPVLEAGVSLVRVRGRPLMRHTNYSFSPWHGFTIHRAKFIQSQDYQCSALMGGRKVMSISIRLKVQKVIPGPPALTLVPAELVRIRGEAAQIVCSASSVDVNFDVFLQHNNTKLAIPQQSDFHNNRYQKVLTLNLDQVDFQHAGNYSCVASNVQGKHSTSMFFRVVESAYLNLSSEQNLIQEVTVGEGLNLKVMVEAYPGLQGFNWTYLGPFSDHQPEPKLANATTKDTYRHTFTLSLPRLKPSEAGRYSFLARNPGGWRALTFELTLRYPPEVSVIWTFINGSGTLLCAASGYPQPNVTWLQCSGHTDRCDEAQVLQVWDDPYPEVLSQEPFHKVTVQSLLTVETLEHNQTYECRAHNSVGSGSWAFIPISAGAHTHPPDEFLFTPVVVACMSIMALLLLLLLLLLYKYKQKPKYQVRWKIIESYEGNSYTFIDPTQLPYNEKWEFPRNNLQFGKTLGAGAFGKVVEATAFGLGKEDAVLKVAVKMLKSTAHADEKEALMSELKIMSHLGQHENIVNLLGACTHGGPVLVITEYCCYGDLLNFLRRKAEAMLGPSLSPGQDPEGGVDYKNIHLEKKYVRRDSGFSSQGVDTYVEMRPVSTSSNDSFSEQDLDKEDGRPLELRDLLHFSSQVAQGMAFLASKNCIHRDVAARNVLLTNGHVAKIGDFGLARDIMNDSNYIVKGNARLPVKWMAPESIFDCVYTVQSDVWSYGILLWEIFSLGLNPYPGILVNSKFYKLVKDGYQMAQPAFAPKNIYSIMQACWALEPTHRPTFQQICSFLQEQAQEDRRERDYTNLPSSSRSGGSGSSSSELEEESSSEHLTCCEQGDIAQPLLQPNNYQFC

IC50 [nM] | SMILES
3.4 | CC1(C)CC=C(c2cc([C@]3(O)CC[C@H](N4CCOCC4)CC3)ccc2NC(=O)c2nc(C#N)c[nH]2)CC1 [US9403804, 45]
0.72 | CC1(C)CC=C(c2cc([C@]3(O)CC[C@@H](N4CCOCC4)CC3)ccc2NC(=O)c2nc(C#N)c[nH]2)CC1 [US9403804, 44]

Source: BindingDB's records for patent US9403804 (Janssen Pharmaceutica, 2016)
